Assay results taken from patent US20130204033A1, “ANTIPROLIFERATIVE COMPOUNDS, CONJUGATES THEREOF, METHODS THEREFOR, AND USES THEREOF” (Medarex, Inc., priority 2009, published 2013).
Where two headings read alike, the source gives them in different places.

Columns and labels:
Type in all cases: cell-based, human
HL-60 = assay: ATP luminescence proliferation assay, HL-60
Procedure: (§1) This example generally describes the procedures used to assay the antiproliferative activity of compounds of this invention or their conjugates. Human tumor cell lines were obtained from the American Type Culture Collection (ATCC), P.O. Box 1549, Manassas, Va. 20108, USA, and cultured according to instruction from the ATCC. Cells were seeded at 1.0×10^3 or 1.0×10^4 cells/well in 96-well plates for 3 h for ATP assays or ^3H thymidine assays, respectively. 1:3 serial dilutions of free (unconjugated) compounds or their conjugates were added to the wells. Plates were allowed to incubate for 24 to 72 h. The ^3H thymidine plates were pulsed with 1.0 μCi of ^3H-thymidine per well for the last 24 hours of the total incubation period, harvested, and read on a Top Count Scintillation Counter (Packard Instruments, Meriden, Conn.). ATP levels in the ATP plates were measured using the […]-GLO® Luminescent Cell Viability kit following the manufacturer's manual and read on a GLOMAX® 20/20 luminometer (both from Promega, Madison, Wis., USA). The EC50 values—the concentration at which an agent inhibits or reduces cell proliferation by 50% —were determined using PRISM™ software, version 4.0 (GraphPad Software, La Jolla, Calif., USA).
(§2) Using the ^3H thymidine or the ATP luminescence assay, or both, the activities of compounds of this invention were assayed against the following cancer cell lines: HCT-15 (colorectal cancer, multi-drug resistant (MDR)); Hep3B (liver cancer); LNCaP (prostate cancer, androgen receptor positive (AR^+)); MDA-MB-231 (breast cancer, estrogen receptor, progesterone receptor, and Her2 negative (triple negative)); A2058 (melanoma); U-87 MG (glioblastoma); NCI-H460 (NSCLC); A549 (NSCLC); HPAC (pancreatic cancer, primary); PC3 (prostate cancer, AR); BT474 (breast cancer, Her2 highly positive (Her2hi)); SKOV3 (ovarian cancer, Her2hi); 786-O (renal cancer); UO-31 (renal cancer, MDR); NCI-H740 (SCLC); DMS53 (SCLC); SK-BR3 (breast cancer, Her2hi); ZR-75 (breast cancer, estrogen receptor positive); OVCAR3 (ovarian cancer); HL-60 (APL); OVCAR8/Adr (ovarian cancer, MDR); CEM-Cl (ALL); Nomo-1 (AML); RPMI-8226 (MM)); Raji (lymphoma); SW-480 (colorectal cancer, metastatic); SW-620 (colorectal cancer); and H226 (lung cancer). (Not all compounds were assayed against all cell lines.)
(§3) FIGS. 12a and 12b show illustrative plots for ATP luminescence proliferation assays for a second set of compounds of this invention, against HL-60 and 786-O cells, respectively, with an incubation period of 72 h. FIGS. 12c and 12d show the plots for ^3H thymidine proliferation assays for the same set of compounds, again against HL-60 and 786-O cells, respectively, with a 72 h incubation period. In each instance, doxorubicin was used as a comparative compound.
(§4) Table 3 provides the data for the ATP luminescence proliferation assays, with an incubation period of 48, 72, or 96 h, as noted.

OVCAR3 = assay: ATP luminescence proliferation assay, OVCAR3
Procedure: as §1, §2, §4

786-O = assay: ATP luminescence proliferation assay, 786-O
Procedure: as §1, §2, §3, §4

OVCAR8/Adr = assay: ATP luminescence proliferation assay, OVCAR8/Adr; details: read-out: EC50 against the OVACAR8/Adr cell line
Procedure: as §1, §2, §4

H226 = assay: ATP luminescence proliferation assay, H226; details: Homo sapiens, NCI-H226, 72 h incubation period, read-out: EC50 against the H226 cell line
Procedure: as §1, with “The EC50 values—the concentration at which an agent inhibits or reduces cell proliferation by 50% —were determined using PRISM™ software, version 4.0 (GraphPad Software, La Jolla, Calif., USA).” left out
as §2, with “(Not all compounds were assayed against all cell lines.)” left out

HCT-15 = assay: ATP luminescence proliferation assay, HCT-15; details: ATP luminescence, HCT-15, 72 h incubation; read-out: EC50 HCT-15 (72 h)
Procedure: as §1, §2, §4

[1] = ATP luminescence, 786-O, 72 h incubation, read-out: EC50 786-O (72 h)

CCCN(C(=O)[C@@H](NC(=O)[C@H]1CCCCN1C)[C@@H](C)CC)[C@H](C[C@@H](OC(C)=O)c1nc(C(=O)N[C@@H](Cc2ccc(N)cc2)CC(C)C(=O)OCC)cs1)C(C)C (stereo partly drawn) [Compound 112]
EC50 (HL-60; Homo sapiens, HL-60, 48 h, read-out: EC50 HL-60 (48 h), ATP luminescence, HL-60, 48 h incubation): 0.05 to 0.09 nM
EC50 (OVCAR3; Homo sapiens, OVCAR-3, 72 h, read-out: EC50 OVCAR3 (72 h), ATP luminescence, OVCAR3, 72 h incubation): 0.049 nM
EC50 (786-O; Homo sapiens, 786-0, 72 h, read-out: EC50 786-O (72 h), ATP luminescence, 786-O, 72 h incubation): 0.67 nM
EC50 (OVCAR8/Adr; Homo sapiens, OVCAR-8, 48 h incubation period): 12 nM
EC50 (H226): 0.67 to 1.16 nM

CC[C@H](C)[C@H](NC(=O)[C@H]1CCCCN1C)C(=O)N(C)[C@H](C[C@@H](OC(C)=O)c1nc(C(=O)N[C@@H](Cc2ccc(N)cc2)C[C@H](C)C(=O)O)cs1)C(C)C [Compound 84a]
EC50 (HL-60; ATP luminescence, HL-60, 48 h incubation, read-out: EC50 HL-60 (48 h)): 10 to 28 nM
EC50 (OVCAR3; ATP luminescence, OVCAR3, 48 h incubation, read-out: EC50 OVCAR3 (48 h)): 8.19 nM
EC50 (786-O; ATP luminescence, 786-O, 48 h incubation, read-out: EC50 786-O (48 h)): 6.12 nM
EC50 (OVCAR8/Adr; 48 h incubation period): > 300 nM
EC50 (HCT-15): 138 nM

CCOC(=O)C(C)C[C@H](Cc1ccc(N)cc1)NC(=O)c1csc([C@@H](C[C@H](C(C)C)N(COC)C(=O)[C@@H](NC(=O)[C@H]2CCCCN2C)[C@@H](C)CC)OC)n1 (stereo partly drawn) [Compound 134]
EC50 (786-O; [1]): 9.89 nM

CCCOCN(C(=O)[C@@H](NC(=O)[C@H]1CCCCN1C)[C@@H](C)CC)[C@H](C[C@@H](OC)c1nc(C(=O)N[C@@H](Cc2ccc(N)cc2)CC(C)C(=O)OCC)cs1)C(C)C (stereo partly drawn) [Compound 135]
EC50 (786-O; [1]): 12.9 nM
